Measurements: ChEMBL document CHEMBL5370576, “Design, synthesis and biological evaluation of 2,4,6- trisubstituted triazine derivatives as new nonpeptide small-molecule SIRT5 inhibitors” (Bioorg Med Chem, 2023)
pIC50: −log10 of the molar value. Values belong to the molecule of their own block, whether it stands above or below them. Activity calls are given as the source filed them. The calls are words filed in the database; no cut-off is given here.

Assays:
[1] = target: T1, NAD-dependent protein deacylase sirtuin-5, mitochondrial (Homo sapiens, UniProt Q9NXA8); test: Inhibition of human recombinant SIRT5 (34 to 269 residues) using Ac-Leu-Gly-Ser-Lys (Su)-AMC as fluorogenic substrate incubated for 2 hrs in presence of NAD+ by fluorescence based analysis
Target sequence in this assay (Q9NXA8 whole entry, the tested form may be a part): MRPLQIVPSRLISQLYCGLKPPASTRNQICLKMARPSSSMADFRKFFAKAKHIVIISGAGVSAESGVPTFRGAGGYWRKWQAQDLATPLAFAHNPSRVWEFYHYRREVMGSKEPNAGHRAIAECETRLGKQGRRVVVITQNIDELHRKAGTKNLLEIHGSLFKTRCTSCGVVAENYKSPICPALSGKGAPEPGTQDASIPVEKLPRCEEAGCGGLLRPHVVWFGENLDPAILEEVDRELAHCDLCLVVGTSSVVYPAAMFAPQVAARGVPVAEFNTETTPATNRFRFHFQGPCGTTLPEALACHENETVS

[2] = target: T1, NAD-dependent protein deacylase sirtuin-5, mitochondrial; test: Inhibition of human recombinant SIRT5 (34 to 269 residues) using Ac-Leu-Gly-Ser-Lys (Su)-AMC as fluorogenic substrate incubated for 2 hrs in presence of NAD+ at 50 uM by fluorescence based analysis
Target sequence in this assay (Q9NXA8 whole entry, the tested form may be a part): as above

[3] = target: T1, NAD-dependent protein deacylase sirtuin-5, mitochondrial; test: Inhibition of human recombinant SIRT5 (34 to 269 residues) using Ac-Leu-Gly-Ser-Lys (Su)-AMC as fluorogenic substrate incubated for 2 hrs in presence of NAD+ at 100 uM by fluorescence based analysis
Target sequence in this assay (Q9NXA8 whole entry, the tested form may be a part): as above

[4] = target: T1, NAD-dependent protein deacylase sirtuin-5, mitochondrial; test: Inhibition of human recombinant SIRT5 (34 to 269 residues) using Ac-Leu-Gly-Ser-Lys (Su)-AMC as fluorogenic substrate incubated for 2 hrs in presence of NAD+ at 200 uM by fluorescence based analysis
Target sequence in this assay (Q9NXA8 whole entry, the tested form may be a part): as above

[5] = target: T1, NAD-dependent protein deacylase sirtuin-5, mitochondrial; test: Inhibition of human recombinant SIRT5 (34 to 269 residues) using Ac-Leu-Gly-Ser-Lys (Su)-AMC as fluorogenic substrate incubated for 2 hrs in presence of NAD+ at 400 uM by fluorescence based analysis
Target sequence in this assay (Q9NXA8 whole entry, the tested form may be a part): as above

[6] = target: T1, NAD-dependent protein deacylase sirtuin-5, mitochondrial; test: Inhibition of human recombinant SIRT5 (34 to 269 residues) using Ac-Leu-Gly-Ser-Lys (Su)-AMC as fluorogenic substrate incubated for 2 hrs in presence of NAD+ at 800 uM by fluorescence based analysis
Target sequence in this assay (Q9NXA8 whole entry, the tested form may be a part): as above

[7] = target: T1, NAD-dependent protein deacylase sirtuin-5, mitochondrial; test: Competitive inhibition of human recombinant SIRT5 (34 to 269 residues) incubated for 2 hrs in presence of 11 uM of fluorogenic substrate Ac-Leu-Gly-Ser-Lys (Su)-AMC by fluorescence based analysis
[8] = target: T1, NAD-dependent protein deacylase sirtuin-5, mitochondrial; test: Competitive inhibition of human recombinant SIRT5 (34 to 269 residues) incubated for 2 hrs in presence of 33 uM of fluorogenic substrate Ac-Leu-Gly-Ser-Lys (Su)-AMC by fluorescence based analysis
[9] = target: T1, NAD-dependent protein deacylase sirtuin-5, mitochondrial; test: Competitive inhibition of human recombinant SIRT5 (34 to 269 residues) incubated for 2 hrs in presence of 100 uM of fluorogenic substrate Ac-Leu-Gly-Ser-Lys (Su)-AMC by fluorescence based analysis
[10] = target: T1, NAD-dependent protein deacylase sirtuin-5, mitochondrial; test: Competitive inhibition of human recombinant SIRT5 (34 to 269 residues) incubated for 2 hrs in presence of 300 uM of fluorogenic substrate Ac-Leu-Gly-Ser-Lys (Su)-AMC by fluorescence based analysis
[11] = target: T2, NAD-dependent protein deacetylase sirtuin-1 (Homo sapiens, UniProt Q96EB6); test: Inhibition of recombinant SIRT1 (unknown origin) using Ac-Arg-Leu-Ile-Lys-(Ac) AMC as substrate in presence of NAD+
T2 sequence (Q96EB6 whole entry): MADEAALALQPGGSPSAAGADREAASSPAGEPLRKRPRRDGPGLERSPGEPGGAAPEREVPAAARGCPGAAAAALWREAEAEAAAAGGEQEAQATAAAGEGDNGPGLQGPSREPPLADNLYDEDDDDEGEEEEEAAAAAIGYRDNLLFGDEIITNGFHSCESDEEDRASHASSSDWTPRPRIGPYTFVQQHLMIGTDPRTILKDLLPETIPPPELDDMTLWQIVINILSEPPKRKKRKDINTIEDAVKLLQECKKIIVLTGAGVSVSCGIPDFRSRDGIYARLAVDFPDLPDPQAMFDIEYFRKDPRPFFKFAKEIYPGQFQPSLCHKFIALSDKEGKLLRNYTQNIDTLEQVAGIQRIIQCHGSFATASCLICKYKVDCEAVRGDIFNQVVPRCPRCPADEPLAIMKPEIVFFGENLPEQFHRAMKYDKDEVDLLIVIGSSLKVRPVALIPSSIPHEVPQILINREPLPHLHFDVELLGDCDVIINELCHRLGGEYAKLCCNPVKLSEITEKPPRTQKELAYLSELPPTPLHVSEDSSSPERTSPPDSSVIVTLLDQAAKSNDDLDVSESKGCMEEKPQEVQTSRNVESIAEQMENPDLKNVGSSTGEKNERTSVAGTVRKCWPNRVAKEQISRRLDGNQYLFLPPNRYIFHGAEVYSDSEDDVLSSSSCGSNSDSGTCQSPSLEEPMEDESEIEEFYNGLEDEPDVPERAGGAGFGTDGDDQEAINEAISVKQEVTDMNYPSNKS

[12] = target: T3, NAD-dependent protein deacetylase sirtuin-2 (Homo sapiens, UniProt Q8IXJ6); test: Inhibition of human recombinant SIRT2 using Ac-Glu-Thr-Asp-Lys (Dec)-AM as substrate in presence of NAD+
T3 sequence (Q8IXJ6 whole entry): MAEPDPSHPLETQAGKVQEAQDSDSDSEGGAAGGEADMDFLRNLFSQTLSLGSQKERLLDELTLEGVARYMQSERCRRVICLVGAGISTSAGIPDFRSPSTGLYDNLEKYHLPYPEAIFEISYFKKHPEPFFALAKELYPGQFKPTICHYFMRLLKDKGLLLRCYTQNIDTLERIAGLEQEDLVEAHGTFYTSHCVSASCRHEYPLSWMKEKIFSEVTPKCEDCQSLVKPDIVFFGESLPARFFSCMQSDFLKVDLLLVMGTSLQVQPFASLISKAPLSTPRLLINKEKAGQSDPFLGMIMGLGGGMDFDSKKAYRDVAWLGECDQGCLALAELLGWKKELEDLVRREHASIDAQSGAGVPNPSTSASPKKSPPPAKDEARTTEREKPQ

[13] = target: T1, NAD-dependent protein deacylase sirtuin-5, mitochondrial; test: Competitive inhibition of human recombinant SIRT5 (34 to 269 residues) using Ac-Leu-GlySer-Lys (Su)-AMC as substrate at 0 to 50 uM by Lineweaver-Burk plot analysis; conditions: dose 0-50 µM
Target sequence in this assay (Q9NXA8 37-310 limits assumed): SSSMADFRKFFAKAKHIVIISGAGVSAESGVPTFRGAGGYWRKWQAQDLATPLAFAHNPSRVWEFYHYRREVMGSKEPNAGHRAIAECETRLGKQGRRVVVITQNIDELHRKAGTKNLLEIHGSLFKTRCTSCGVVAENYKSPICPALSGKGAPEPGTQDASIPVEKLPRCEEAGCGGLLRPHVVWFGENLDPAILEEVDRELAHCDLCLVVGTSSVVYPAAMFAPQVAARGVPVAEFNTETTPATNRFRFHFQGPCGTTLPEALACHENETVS

[14] = target: T1, NAD-dependent protein deacylase sirtuin-5, mitochondrial; test: Binding affinity to human recombinant SIRT5 (34 to 269 residues) assessed as thermal stabilization by measuring change in melting temperature at 50 uM and measured after 10 mins by SYPRO orange dye based thermal shift assay
Target sequence in this assay (Q9NXA8 37-310 limits assumed): as above

[15] = target: T1, NAD-dependent protein deacylase sirtuin-5, mitochondrial; test: Binding affinity to human recombinant SIRT5 (34 to 269 residues) assessed as thermal stabilization by measuring change in melting temperature at 100 uM and measured after 10 mins by SYPRO orange dye based thermal shift assay
Target sequence in this assay (Q9NXA8 37-310 limits assumed): as above

[16] = target: T1, NAD-dependent protein deacylase sirtuin-5, mitochondrial; test: Binding affinity to human recombinant SIRT5 (34 to 269 residues) assessed as thermal stabilization by measuring melting temperature at 50 uM and measured after 10 mins by SYPRO orange dye based thermal shift assay
Target sequence in this assay (Q9NXA8 37-310 limits assumed): as above

[17] = target: T1, NAD-dependent protein deacylase sirtuin-5, mitochondrial; test: Binding affinity to human recombinant SIRT5 (34 to 269 residues) assessed as thermal stabilization by measuring melting temperature at 100 uM and measured after 10 mins by SYPRO orange dye based thermal shift assay
Target sequence in this assay (Q9NXA8 37-310 limits assumed): as above

SMILES: O=C(O)CCNC(=S)NCCCNc1nc(Nc2ccccc2Cl)nc(NC2CCC2)n1
pIC50 [1]: 4.60

SMILES: CC(CCc1ccccc1)Nc1nc(NCCCNC(=S)NCCC(=O)O)nc(Nc2ccccc2Cl)n1 (stereo unspecified)
pIC50 [1]: 4.57

SMILES: O=C(O)CCNC(=S)NCCCNc1nc(Nc2ccccc2Cl)nc(N2CCCC2c2ccccc2)n1 (stereo unspecified)
pIC50 [1]: 4.89

SMILES: O=C(O)CCNC(=S)NCCCNc1nc(NCc2ccccc2)nc(Nc2ccccc2Cl)n1
pIC50 [1]: 4.84

SMILES: O=C(O)CCNC(=S)NCCCNc1nc(Nc2ccccc2Cl)nc(NC2CCCC2)n1
pIC50 [1]: 4.71

SMILES: CC(C)(C)OC(=O)[C@H](Nc1nc(NCCCNC(=S)NCCC(=O)O)nc(Nc2ccccc2Cl)n1)c1ccccc1
pIC50 [1]: 4.67

SMILES: CC[C@H](Nc1nc(NCCCNC(=S)NCCC(=O)O)nc(Nc2ccccc2Cl)n1)c1ccccc1
pIC50 [1]: 5.03

SMILES: O=C(O)CCNC(=S)NCCCNc1nc(NCCc2ccccc2)nc(Nc2ccccc2Cl)n1
pIC50 [1]: 5.16

More lines, now with the values ahead:

pIC50 [1]: 4.74
SMILES: O=C(O)CCNC(=S)NCCCNc1nc(Nc2ccccc2Cl)nc(NC2CC2)n1

pIC50 [1]: 5.27
pIC50 [2]: 5.64
pIC50 [3]: 5.47
pIC50 [4]: 5.33
pIC50 [5]: 5.39
pIC50 [6]: 5.17
pIC50 [7]: 5.49
pIC50 [8]: 5.23
pIC50 [9]: 4.85
pIC50 [10]: 4.53
pIC50 [11]: 4.66
pIC50 [12]: 3.87
SMILES: O=C(O)CCNC(=S)NCCCNc1nc(Nc2ccccc2)nc(Nc2ccccc2Cl)n1

pIC50 [1]: 4.30
SMILES: Cc1c(Br)cccc1Nc1nc(NCCCNC(=S)NCCC(=O)O)nc(Nc2ccccc2Cl)n1

pIC50 [1]: 5.21
SMILES: Cc1cccc(Nc2nc(NCCCNC(=S)NCCC(=O)O)nc(Nc3ccccc3Cl)n2)c1Br

pIC50 [1]: 5.39
pIC50 [2]: 5.32
pIC50 [3]: 5.32
pIC50 [4]: 5.49
pIC50 [5]: 5.46
pIC50 [6]: 5.33
pIC50 [7]: 5.10
pIC50 [8]: 4.84
pIC50 [9]: 4.53
pIC50 [10]: 4.37
inhibition [13]: Active
ΔTm [14]: 2.91 °C
ΔTm [15]: 3.29 °C
Tm [16]: 69.4 °C
Tm [17]: 69.7 °C
pIC50 [11]: 4.02
pIC50 [12]: 3.96
SMILES: COc1cc(Nc2nc(NCCCNC(=S)NCCC(=O)O)nc(Nc3ccccc3Cl)n2)cc(OC)c1

pIC50 [1]: 4.67
SMILES: O=C(O)CCNC(=S)NCCCNc1nc(Nc2cc(F)cc(F)c2)nc(Nc2ccccc2Cl)n1
